{"source": "paper PMC6469177", "about": "“[^177Lu]Lu-PSMA-617 Salivary Gland Uptake Characterized by Quantitative In Vitro Autoradiography” (Pharmaceuticals, 2019)", "key": {"[1]": {"target": "T1, prostate-specific membrane antigen (PSMA) (Homo sapiens, UniProt Q04609)", "T1 construct": "gene FOLH1", "T1 sequence (Q04609 whole entry)": "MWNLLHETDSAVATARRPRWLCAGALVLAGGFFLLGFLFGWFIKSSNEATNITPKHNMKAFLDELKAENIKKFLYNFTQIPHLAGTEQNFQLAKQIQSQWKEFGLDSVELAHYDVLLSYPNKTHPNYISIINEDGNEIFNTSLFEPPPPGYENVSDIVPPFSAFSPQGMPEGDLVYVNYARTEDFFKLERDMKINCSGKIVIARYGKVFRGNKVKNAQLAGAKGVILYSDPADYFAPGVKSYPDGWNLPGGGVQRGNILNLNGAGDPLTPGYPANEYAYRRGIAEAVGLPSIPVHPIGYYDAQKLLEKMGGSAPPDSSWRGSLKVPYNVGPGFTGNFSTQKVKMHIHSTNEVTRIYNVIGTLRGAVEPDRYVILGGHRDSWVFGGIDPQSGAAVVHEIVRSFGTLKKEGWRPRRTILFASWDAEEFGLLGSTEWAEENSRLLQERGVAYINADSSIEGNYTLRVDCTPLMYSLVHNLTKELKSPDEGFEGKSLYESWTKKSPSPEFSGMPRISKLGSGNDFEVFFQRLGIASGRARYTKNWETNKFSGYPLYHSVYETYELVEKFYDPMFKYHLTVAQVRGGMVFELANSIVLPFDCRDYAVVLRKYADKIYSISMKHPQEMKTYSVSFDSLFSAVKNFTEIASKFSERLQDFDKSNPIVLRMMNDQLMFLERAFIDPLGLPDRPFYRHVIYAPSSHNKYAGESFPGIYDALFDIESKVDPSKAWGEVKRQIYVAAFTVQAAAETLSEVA", "test": "blocking of […]Lu-PSMA-617 binding with […] 2-PMPA, autoradiography"}, "[2]": {"target": "T2, prostate-specific membrane antigen (PSMA) (Sus scrofa, UniProt O77564)", "T2 construct": "gene FOLH1; pig salivary gland tissue cryosections", "T2 sequence (O77564 whole entry)": "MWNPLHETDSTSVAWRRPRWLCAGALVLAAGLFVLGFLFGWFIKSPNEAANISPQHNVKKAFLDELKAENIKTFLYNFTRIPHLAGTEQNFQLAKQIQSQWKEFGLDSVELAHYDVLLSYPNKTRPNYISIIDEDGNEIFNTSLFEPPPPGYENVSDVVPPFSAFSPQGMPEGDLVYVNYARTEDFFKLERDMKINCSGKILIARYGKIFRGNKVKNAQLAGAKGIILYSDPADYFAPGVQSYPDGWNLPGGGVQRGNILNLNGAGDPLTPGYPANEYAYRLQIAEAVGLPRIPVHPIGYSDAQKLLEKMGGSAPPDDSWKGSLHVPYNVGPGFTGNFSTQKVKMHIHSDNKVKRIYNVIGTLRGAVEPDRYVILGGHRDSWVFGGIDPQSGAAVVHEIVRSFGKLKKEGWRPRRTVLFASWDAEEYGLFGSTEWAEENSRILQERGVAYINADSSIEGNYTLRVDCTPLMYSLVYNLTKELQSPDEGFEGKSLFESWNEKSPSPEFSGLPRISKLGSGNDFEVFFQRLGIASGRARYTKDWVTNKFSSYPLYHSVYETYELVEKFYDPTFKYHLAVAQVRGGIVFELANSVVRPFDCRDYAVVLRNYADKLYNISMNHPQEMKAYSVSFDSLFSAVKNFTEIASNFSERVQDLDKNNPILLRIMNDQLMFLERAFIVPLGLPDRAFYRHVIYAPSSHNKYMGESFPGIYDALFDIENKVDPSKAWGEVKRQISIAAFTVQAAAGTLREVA", "test": "single-concentration ([…]) blocking of […]Lu-PSMA-617 binding, autoradiography"}, "[3]": {"target": "T2, prostate-specific membrane antigen (PSMA)", "test": "radioligand competition with […]Lu-PSMA-617, autoradiography on pig salivary gland tissue"}}}
{"smiles": "O=C(O)CCC(CP(=O)(O)O)C(=O)O", "note": "(stereo not drawn) [2-PMPA, 2-Phosphonomethyl pentanedioic acid]", "values": [{"measurement": "blocking of [177Lu]Lu-PSMA-617 binding with 80 μM 2-PMPA, autoradiography", "setting": "[1]", "value": "In contrast, LNCaP membrane pellets only showed a negligible non-specific bound fraction."}, {"measurement": "single-concentration (80 μM) blocking of [177Lu]Lu-PSMA-617 binding, autoradiogr", "setting": "[2]", "value": "Additional blocking with 2-PMPA, a highly potent PSMA-inhibitor, resulted in a reduced uptake of radioligand in the glandular areas"}]}
{"smiles": "O=C(O)CC[C@H](NC(=O)N[C@@H](CCCCNC(=O)[C@H](Cc1ccc2ccccc2c1)NC(=O)[C@H]1CC[C@H](CNC(=O)CN2CCN(CC(=O)O)CCN(CC(=O)O)CCN(CC(=O)O)CC2)CC1)C(=O)O)C(=O)O", "note": "[PSMA-617]", "values": [{"measurement": "IC50", "setting": "[3]", "value": "6 ± 0.1", "unit": "nM"}]}
